Assay [1] deals with T1, Kappa-type opioid receptor (Homo sapiens, UniProt P41145).
Description: Antagonist activity at human cloned kappa opioid receptor assessed as inhibition of DAMGO-stimulated [35S]GTP-gamma-S binding
In assay [2] the target is T1, Kappa-type opioid receptor. The source holds these as a separate data set.
Description: Antagonist activity at human cloned kappa opioid receptor assessed as inhibition of U69,593-stimulated [35S]GTP-gamma-S binding
In assay [3] the target is Delta-type opioid receptor (Homo sapiens) (UniProt P41143).
Description: Antagonist activity at human cloned delta opioid receptor assessed as inhibition of DPDPE-stimulated [35S]GTPgammaS binding
The target in assay [4] is T1, Kappa-type opioid receptor. Briefly: Agonist activity at human kappa opioid receptor assessed as inhibition of Galpha-16-induced calcium flux. In kind it is functional. On the technique in general: A change in cytosolic calcium serves as a functional read-out for many receptors and channels.
For assay [5], the target named is T1, Kappa-type opioid receptor. Briefly: Efficacy at human kappa opioid receptor assessed as inhibition of Galpha-16-induced calcium flux relative to U69,593. Type of assay: functional.
Assay [6] has as its target T1, Kappa-type opioid receptor. Nature of the assay: Agonist activity at human kappa opioid receptor by [35S]GTPgammaS binding assay. Type of assay: functional. For orientation: Binding of GTPγS marks nucleotide exchange on a G protein.
Assay [7] concerns the target T1, Kappa-type opioid receptor. Briefly: Efficacy at human kappa opioid receptor by [35S]GTPgammaS binding assay relative to U69,593. In kind it is functional.

Drawing on ChEMBL document CHEMBL1137556, “Synthetic studies of neoclerodane diterpenes from Salvia divinorum: exploration of the 1-position” (Bioorg Med Chem Lett, 2007), this text covers Ke, EC50 and Emax for 8 compounds.

Broadly, the EC50 is the concentration at which the effect is half-maximal. For orientation: Emax means the greatest response seen or fitted, relative to the assay's reference.

T1 sequence (P41145 whole entry): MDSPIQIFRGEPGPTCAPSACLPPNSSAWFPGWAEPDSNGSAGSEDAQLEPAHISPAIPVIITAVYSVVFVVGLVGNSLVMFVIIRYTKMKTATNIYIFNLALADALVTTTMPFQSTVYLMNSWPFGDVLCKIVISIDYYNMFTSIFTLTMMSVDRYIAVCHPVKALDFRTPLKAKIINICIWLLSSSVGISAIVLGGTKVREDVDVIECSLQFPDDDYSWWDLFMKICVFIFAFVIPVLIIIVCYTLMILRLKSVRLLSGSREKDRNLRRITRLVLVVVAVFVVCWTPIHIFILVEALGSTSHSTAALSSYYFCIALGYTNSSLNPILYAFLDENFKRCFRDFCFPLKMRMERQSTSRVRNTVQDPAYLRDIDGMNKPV
Delta-type opioid receptor (Homo sapiens), sequence (P41143 whole entry): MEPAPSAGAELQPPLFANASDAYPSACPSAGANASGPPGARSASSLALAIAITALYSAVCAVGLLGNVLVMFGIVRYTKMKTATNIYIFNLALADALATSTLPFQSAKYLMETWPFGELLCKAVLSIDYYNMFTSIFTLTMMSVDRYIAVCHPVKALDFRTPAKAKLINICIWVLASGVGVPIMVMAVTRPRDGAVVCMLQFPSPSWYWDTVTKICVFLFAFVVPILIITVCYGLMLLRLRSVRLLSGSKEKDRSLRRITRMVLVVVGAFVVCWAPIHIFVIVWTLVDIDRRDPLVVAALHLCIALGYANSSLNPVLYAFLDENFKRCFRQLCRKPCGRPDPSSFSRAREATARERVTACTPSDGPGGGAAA

As to `COC(=O)[C@@H]1CC(=O)C=C2[C@@]1(C)CC[C@H]1C(=O)O[C@H](c3ccoc3)C[C@]21C`, the Ke in assay [1] stood at 700 nM; in assay [2] it was 460 nM; in assay [3] it was 3500 nM.
For the compound `COC(=O)[C@@H]1C[C@H](OC(C)=O)C[C@H]2[C@@]1(C)CC[C@H]1C(=O)O[C@H](c3ccoc3)C[C@]21C`, the Ke in assay [1] is 170 nM; in assay [3], 100 nM. For the same compound, the EC50 was determined as 3.34 nM in assay [4] and 280 nM in assay [6]. Also, the Emax in assay [5] is 93%; in assay [7] it was 49%.
`COC(=O)[C@@H]1C[C@H](OC(=O)c2ccccc2)C[C@H]2[C@@]1(C)CC[C@H]1C(=O)O[C@H](c3ccoc3)C[C@]21C`: the Ke amounted to 4700 nM in assay [1], 580 nM in assay [2] and 8780 nM in assay [3].
Consider `COC(=O)[C@@H]1C[C@H](OC(C)=O)[C@H](OS(C)(=O)=O)[C@H]2[C@@]1(C)CC[C@H]1C(=O)O[C@H](c3ccoc3)C[C@]21C` [1-ALPHA-MESYLOXYSALVINORIN A], for which, in assay [6], the EC50 amounted to 2700 nM. In assay [7], this compound had a maximum response (Emax) of 95%.
As for `COC(=O)[C@@H]1C[C@H](OC(C)=O)[C@H](O)[C@H]2[C@@]1(C)CC[C@H]1C(=O)O[C@H](c3ccoc3)C[C@]21C`, the values for the Ke in assay [1], in assay [2] and in assay [3] were 2300 nM, 240 nM and 1790 nM, respectively.
For `COC(=O)[C@@H]1C[C@H](OC(=O)c2ccccc2)[C@H](O)[C@H]2[C@@]1(C)CC[C@H]1C(=O)O[C@H](c3ccoc3)C[C@]21C` the same measures were 1830 nM, 1050 nM and 2900 nM.
For `COC(=O)[C@@H]1C[C@H](OC(=O)c2ccccc2)C=C2[C@@]1(C)CC[C@H]1C(=O)O[C@H](c3ccoc3)C[C@]21C`, in that order: 1740 nM, 580 nM and 2300 nM.
Consider `COC(=O)[C@@H]1C[C@H](OC(C)=O)C=C2[C@@]1(C)CC[C@H]1C(=O)O[C@H](c3ccoc3)C[C@]21C`, for which the Ke in assay [1] came out at 200 nM; in assay [2] it was 570 nM; in assay [3], 400 nM.
